Test results from patent publication US20250204530A1, “USE OF CAROTENIOD COMPOSITION FOR NEMATODE CONTROL” (IDAI NATURE, S.L., priority 2022, published 2025).

System: Phytopathogenic nematodes (Helicotylenchus and Hemicycliophora)
Assay: NEPOT test in soil pots: full formulation, co-formulants, lutein alone (Example 14)
Format: in vivo
Details: 20 mL/pot, 7 DAA; for number of nematodes in soil (living individuals, Baermann): 320 individuals per pot
Description: The purpose of this test was to evaluate the efficacy of the products coded as P1, P2 and P3 of the company IDAI NATURE against a mixture of phytopathogenic nematodes by the company NEVAL.
This study evaluates the behaviour under controlled conditions, in soil (NEPOT test)* of a battery of products against a mixture of phytopathogenic nematodes.
This study consists of 3 compositions, each of them at 2 doses and a control without treatment.
The juveniles were obtained from a freshly extracted sample of roots of sports lawns.
It is based on pots or glasses with the right amount of 100 mL for a quantification per sample.
• Product 1: N-09-04—Full formulation • Product 2: Co-formulant package (without A.I.)—(sunflower oil+tensioactives polysorbates 20, 80 and 85+butyl glycol+TBHQ+water) • Product 3: The Active ingredient alone—Lutein
The trial was carried out laboratory in Xilxes—Castelon—Spain—under controlled conditions and plant pathogenic nematodes in soil in a volume of 100 mL per pot. The three replicates per treatment were worked in 100 mL pots of soil with 320 plant pathogenic nematodes in each pot. • Pest: Phytopathogenic nematodes (Helicotylenchus and Hemicycliophora) • Innoculum quantity: 320 individuals per experimental unit • Substract: Sandy soil • Application: Manual—20 mL/pot • Design: Randomized Complete Block (RCB)—3 replicates per treatment • Equipment: Manual application: with micropipette and MAT 09.1 balance • Application code: A=28/06/2021—preparation+application A • Extraction=05/07/2021 (7 DAA according Baermann) • Quantification=06/07/2021
Products 1 (N-09-04 full formulation) and product 2 (the full formulation without the Lutein) were mixed with water, while product 3 (Lutein alone—active ingredient), difficult miscibility was deposited on the ground, adding the water later and mixing everything in the soil with a teaspoon shaking for 30 seconds each replica.
After the study carried out under laboratory conditions, each of the soil samples was extracted using the Baermann funnel procedure for 24 hours and then quantified under a biological microscope.
The Baermann procedure has the particular option of extracting only those individuals that have mobility, that is, that are alive, so the result is extrapolated to living individuals.

## CC1=C[C@H](O)CC(C)(C)[C@H]1/C=C/C(C)=C/C=C/C(C)=C/C=C/C=C(C)/C=C/C=C(C)/C=C/C1=C(C)C[C@@H](O)CC1(C)C [Product 3, Lutein]
0.375 mL/L
  efficacy / control (in brackets): 78.4%
  number of nematodes in soil (living individuals, Baermann): 68.0
0.563 ml/L
  efficacy / control (in brackets): 77.5%
  number of nematodes in soil (living individuals, Baermann): 71.0
5 ml/L
  efficacy / control (in brackets): 4.2%
7.5 ml/L
  efficacy / control (in brackets): 40.8%
